{"source": "patent EP1261587B1", "about": "“STILBENE DERIVATIVES, THEIR PREPARATION AND THEIR USE AS ANTIVIRAL AGENTS” (priority 1999, dated 2001)", "key": {"[1]": {"target": "T1, Tat-TAR complex (recombinant Tat, synthetic TAR duplex) (Human immunodeficiency virus type 1 group M subtype B, UniProt P04608)", "T1 construct": "purchased Medical Research Council (MRC), Cambridge, U.K", "T1 sequence (P04608 whole entry, one chain of several)": "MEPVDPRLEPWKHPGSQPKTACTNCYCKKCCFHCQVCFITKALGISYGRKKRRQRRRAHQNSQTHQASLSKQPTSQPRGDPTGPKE", "assay": "competition Tat-TAR gel-shift assay", "assay_type": "binding, HIV-1", "text": "The in vitro inhibition of the interaction between Tat and TAR can be shown by a competition Tat-TAR gel-shift assay. Through binding of the protein (recombinant Tat, Medical Research Council (MRC), Cambridge, U.K. - for the sequence of recombinant Tat see Churcher et al., J. Mol. Biol. 230, 90-110 (1993)) to the RNA (synthetic TAR duplex, Genset, Paris, France; for the sequence see Hamy et al., J. Mol. Biol. 230, 111-123 (1993)), the overall size and the charge/weight ratio of the formed duplex are changed, so that electrophoretic migration through a native polyacrylamide gel is affected. By radioactive labelling of the RNA and subsequent autoradiography, free RNA and complexes can be discriminated based on their relative positions in the gel (Hamy et al., J. Mol. Biol. 230, 111-123 (1993)). If the binding reaction with a test substance is able to prevent the protein binding to the radiolabelled RNA, this competition for binding can be visualized on the autoradiography as a decreased intensity of the retarded band. In more detail, compounds of the formula I are tested as follows:\nThe 14-mer strand of duplex TAR-RNA is labelled in the presence of T4 polynucleotide kinase (New England Biolabs, Beverly, MA, USA) using [γ-^32P]ATP (Amersham, Little Chalfont, UK), 10 mM DTT (=dithiothreitol), 50 mM Tris.HCI (pH 7.4, Tris = Tris(hydroxymethyl)aminomethane), 0.77 % (w/v) spermidine (Fluka, Switzerland) and 10 units T4 polynucleotide kinase incubated at 37 °C for 20 min. After heat-treatment (65 °C, 10 min) for enzyme inactivation, the unincorporated [γ-^32P]ATP is removed by chromatography through a Sephadex NAP-10 column (Pharmacia, Uppsala, Sweden) equilibrated with water. Prior to the in-vitro-binding reaction, the labelled 14-mer is annealed to 1.5 equivalents of unlabelled 17-mer by heating to 90 C for 3 min, followed by slow cooling down to 0 °C. […] The CD50-values that are obtained are preferably in the range of from 10 x 10^-9 to 10 x 10^-6 M, more preferably from 10 x 10^-9 to 0.5 x 10^-6 M."}, "[2]": {"assay": "maximal tolerated dose (MTD) determination in mice", "assay_type": "in vivo", "description": "After single application of up to 50 mg/kg by i.v. administration to mice no signs of overt toxicity are observed during 8 days of observation. In detail, the assay is conducted as follows: The assay is designed for the determination of the maximal tolerated dose (MTD) For the MTD determination, three six to eight week old female Balb/c AnCbif Tif mice (Ciba animal farm, Sisseln, Switzerland) per dose group are treated once i.v. The dosage is increased until toxic effects are observed within 7 days after drug treatment. After 7 days the animals are euthanasized and organs are macroscopically inspected. The MTD is the dose where all three animals still survive. For example, when the compounds of examples 2 or 4, trans-5-(Acetoacetylamino)-2-[2-{4-(4,5-dihydro-3-methyl-5-oxo-1H-pyrazol-1-yl)-2-sulfophenyl]ethenyl]-benzenesulfonic acid or N,N'-Bis(trans-4-{2-[4-(3-methyl-5-oxo-4,5-dihydro-1H.-pyrazol-1-yl)-2-sulfo-phenyl]-vinyl}-2-sulfophenyl)-[1,3,5]triazine-2,4,6-triamine, are dissolved in sterile sodium chloride solution 0.9%, the MTD after i.v. administration is > 50 mg/kg."}, "HIV-1/LAV.04": {"system": "HIV-1/LAV.04", "assay": "inhibition of viral growth of HIV-1 in PBLs (RT activity in cell supernatants)", "assay_type": "cell-based", "conditions": "concentration at which 90 % reduction of RT activity versus untreated control is observed; human PBLs infected with HIV-1/LAV.04", "method": "In brief, Peripheral Blood Mononuclear Lymphocytes (PBLs) are obtained from the blood of healthy volunteers by leukapheresis. Cells (1 x 10^6/ml) are cultured for 2 days in RPMI-1640 (Gibco), supplemented with 10 % heat-inactivated fetal calf serum (Gibco), 50 mg/ml streptomycin, 50 U/ml penicillin (Amimed), 2 nM glutamine and 10 mM hepes buffer (Gibco). Stimulated lymphocytes are obtained by culturing in the presence of PHA (0.25 mg/ml; Wellcome diagnostics, Templehill, Dartford, England). PHA-lymphocyte stimulation is confirmed by the increase in cell size (Scattergram, FACS analysis). Cells are exposed to HIV-1/LAV.04 (see Barre-Sinoussi et al., Science 220, 868-871 (1983)) for 6 h. […] Medium is changed every 3 days and activity of viral reverse transcriptase (RT activity) is determined in cell supernatants, serving as a measure for the presence of virus and thus of progression of infection according to known procedures (see Willey et al., J. Virol. 62, 353-8 (1991) for details of the method). In brief, RT determination is possible as follows: The RT activity is determined in 50mM Tris (α,α,α--tris(hydroxymethyl)methylamine, ultra pure, Merck, Federal Republic of Germany) pH 7.8; 75mM of KCl, 2mM of dithiothreitol, 5mM of MgCl2; 0.05% Nonidet P-40 (detergent; Sigma, Switzerland); 50 µg/ml of polyadenylic acid (Pharmacia, Sweden); and 1.6 µg/ml of dT(12-18) (Sigma, Switzerland). […]"}, "[3]": {"conditions": "concentration giving 50 % decrease in intensity of the retarded band (Tat-TAR complex), 20 nM recombinant Tat, read-out: CD50 (the source's name)"}}, "note": "Structures can show the parent of a compound that is named as a salt. Where two headings read alike, the source gives them in different places."}
{"smiles": "CC1=NN(c2ccc(/C=C/c3ccc(Nc4nc(N)nc(Nc5ccc(/C=C/c6ccc(N7N=C(C)CC7=O)cc6S(=O)(=O)O)cc5S(=O)(=O)O)n4)c(S(=O)(=O)O)c3)c(S(=O)(=O)O)c2)C(=O)C1", "note": "[Example 4, N,N'-Bis(trans-4-{2-[4-(3-methyl-5-oxo-4,5-dihydro-1.H.-pyrazol-1-yl)-2-sulfophenyl]-vinyl}-2-sulfophenyl)-[1,3,5]triazine-2,4,6-triamine]", "values": [{"measurement": "IC50", "setting": "[1]; [3]", "value": 50, "unit": "nM"}, {"measurement": "MTD", "setting": "[2]; single i.v. administration, female mice, dissolved in sterile sodium chloride solution 0.9%, dose where all three animals still survive, 10080 min", "value": "> 50", "unit": "mg/kg"}]}
{"smiles": "CC1=NN(c2ccc(/C=C/c3ccc(NC(=O)Nc4ccc(/C=C/c5ccc(N6N=C(C)C(N=Nc7ccccc7C(=O)O)C6=O)cc5S(=O)(=O)O)cc4S(=O)(=O)O)c(S(=O)(=O)O)c3)c(S(=O)(=O)O)c2)C(=O)C1N=Nc1ccccc1C(=O)O", "note": "(stereo not drawn) [Example 5, N,N'-Bis(trans-4-{2-[4-(3-methyl-5-oxo-4-(o-carboxyphenylazo)-4,5-dihydro-1.H.-pyrazol-1-yl)-2-sulfo-phenyl]-vinyl}-2-sulfophenyl)-urea tetrasodium salt]", "values": [{"measurement": "IC50", "setting": "[1]; [3]", "value": 70, "unit": "nM"}]}
{"smiles": "CC(=O)CC(=O)Nc1ccc(/C=C/c2ccc(N3N=C(C)CC3=O)cc2S(=O)(=O)O)c(S(=O)(=O)O)c1", "note": "[Example 2, trans-5-(Acetoacetylamino)-2-[2-{4-(4,5-dihydro-3-methyl-5-oxo-1H-pyrazol-1-yl)-2-sulfophenyl}ethenyl]-benzenesulfonic acid]", "values": [{"measurement": "ED90", "setting": "HIV-1/LAV.04", "value": 30000, "unit": "nM"}, {"measurement": "IC50", "setting": "[1]", "value": 20, "unit": "nM"}, {"measurement": "MTD at 7 days", "setting": "[2]; female, Balb/c AnCbif Tif, mouse, in vivo, iv", "value": "> 50", "unit": "mg/kg"}]}
{"smiles": "CC1=NN(c2ccc(/C=C/c3ccc(Nc4nc(Cl)nc(Nc5ccc(/C=C/c6ccc(N7N=C(C)CC7=O)cc6S(=O)(=O)O)cc5S(=O)(=O)O)n4)c(S(=O)(=O)O)c3)c(S(=O)(=O)O)c2)C(=O)C1", "note": "[Example 3, N,N'-Bis(trans-4-{2-[4-(3-methyl-5-oxo-4,5-dihydro-1.H.-pyrazol-1-yl)-2-sulfophenyl]-vinyl}-2-sulfophenyl)-2-chloro-[1,3,5]triazine-4,6-diamine]", "values": [{"measurement": "ED90", "setting": "HIV-1/LAV.04", "value": 20000, "unit": "nM"}, {"measurement": "IC50", "setting": "[1]; [3]", "value": 50, "unit": "nM"}]}
